Experimental data taken from PubChem BioAssay AID1963443 (Molecular Pharmacology Branch, DTP, NCI, 2024).

Tested on: MDA-MB-231 complex spheroids, growth inhibition
Test: Anticancer human tumor MDA-MB-231 cell line growth inhibition [Asc];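 also: spheroids exposed to compounds for 7 days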
Details: for IC50: curve of first compound; for viability, T/C: stronger effect = lower value
Method: Multicellular complex tumor spheroid response to apoptosis pathway targeting inhibitors Alrizomadlin, Pelcitoclax, and Dasminapant in combination with a variety of drugs and investigational agents in selected tumor cell lines
The MDM2 inhibitor alrizomadlin, the Bcl-2/Bcl-xL inhibitor pelcitoclax, and the IAPs inhibitor dasminapant were evaluated both individually and in combination with standard of care and investigational anticancer small molecules within a complex spheroid model of solid tumors. . Complex spheroids include a stromal component modeled by human endothelial cells (HUVEC) and fibroblasts modeled by human mesenchymal stem cells (MSCs). The concentration ranges selected for each drug and investigational agent were based upon clinically achievable concentrations if the clinical Cmax of the agent was known.
Compounds. The drugs and investigational agents: alrizomadlin (APG-115; NSC831270), pelcitoclax (APG-1252; NSC835773), dasminapant (APG-1387;NSC834197), TAK-243 (NSC785004), copanlisib (NSC809693), olaparib (NSC753686), talazoparib (NSC767125), cobimetinib (NSC 768068), eltanexor (KPT-8602, NSC 794443), abemaciclib (NSC 768073), sotorasib (NSC818433), adagrasib (NSC 831453), MRTX-1133 (NSC 836407), Iadademestat (ORY1001, NSC 806812), and RMC-4630 (NSC839698), were obtained from the NCI Developmental Therapeutics Program Chemical Repository. The FDA-approved anticancer drug set is available from the Developmental Therapeutics Program at https://dtp.cancer.gov/organization/dscb/obtaining/available plates.htm. […] The stock solutions were prepared in dimethyl sulfoxide (DMSO, Sigma-Aldrich, St. Louis, MO, cat. D2650) at 800-fold the tested concentration and stored at -70 degrees C prior to their use. All drugs and investigational agents were tested over a range starting from a high concentration at or near the clinical Cmax and decreasing in half-log increments. If the clinical Cmax for an agent had not been determined, the highest concentration tested was 10 microM.
The patient-derived cancer (PDC) cell lines include five colon adenocarcinomas: 186277-243-T-J2-PDC, 616215-338-R-J1-PDC, 439559-082-T-J2-PDC, 463943-066-T-J2-PDC, and 519858-162-T-J1-PDC; three pancreatic carcinomas: 323965-272-R-J2-PDC, 521955-158-R6-J3-PDC, and 521955-158-R2-J5-PDC; two uterine sarcomas: 327498-152-R-J2-PDC and 993429-296-R-J1-PDC; two rhabdomyosarcomas: 755483-174-R-J1-PDC and 772245-204-R-J1-PDC; two soft tissue sarcomas: 126254-015-R-J1-PDC and 494315-158-R-J1-PDC; two malignant fibrous histiocytomas: 317291-083-R-J1-PDC and 596521-263-R-J1-PDC; two breast carcinomas: 171881-019-R-J1-PDC and 885512-296-R-J2-PDC; and one ovarian carcinoma: 6556581-035-R-J-PDC were obtained from the NCI PDMR, (https://pdmr.cancer.gov). The established cell lines HSSY-2 synovial sarcoma (RRID:CVCL 8719), SYO-1 synovial sarcoma (RRID:CVCL_7146), MPNST malignant peripheral neural sheath tumor were obtained from the Sloan Kettering Institute. The following established cell lines were purchased from the American Type Culture Collection (ATCC, Manassas, VA), Sor the received from the NCI repository:, PANC-1 pancreatic carcinoma (CRL-1469, RRID:CVCL_0480), OVCAR-5 ovarian carcinoma (RRID:CVCL_1628), OVCAR-8 ovarian carcinoma (RRID:CVCL_1629), , MCF-7 breast carcinoma (CRL-12584, RRID:CVCL_0031), MDA-MB-231 breast carcinoma (CRL-12532, RRID:CVCL_0062), NCI-H1876 small cell lung carcinoma (CRL-5902, RRID:CVCL_1503), NCI-H510A small cell lung carcinoma (HTB-184, RRID:CVCL_1565), NCI-H1417 (CRL-5869, RRID:CVCL_1469), and NCI-H196 small cell lung carcinoma (CRL-5823, RRID:CVCL_1509). Dr. Peter Houghton (Greehey Children's Cancer Research Institute, University of Texas Health Science Center, San Antonio, TX) provided Rh-18 rhabdomyosarcoma (RRID:CVCL_1659). Pooled donor human umbilical vein endothelial cells (HUVEC, Lonza, cat. CC-2519) and human mesenchymal stem cells (hMSC, Lonza, cat. PT-2501) were purchased from Lonza (Walkersville, MD).
Cell Culture. […]

Cc1nc(N2CCC3(CC2)COC(C)C3N)c(CO)nc1Sc1ccnc(N)c1Cl (stereo not given) + CCN1C(C(=O)NC23CCC(C(=O)O)(CC2)CC3)C(c2cccc(Cl)c2F)C2(C(=O)Nc3cc(Cl)ccc32)C12CCCCC2 showed an IC50 (second compound 0.03 µM) of 319 nM, an IC50 (second compound 0.0949 µM) of 337 nM and an IC50 (second compound 0.3 µM) of 281 nM. It also gave an IC50 (second compound 0.949 µM) of 270 nM, an IC50 (second compound 3 µM) of 157 nM and a viability, T/C (second compound 0.03 µM, first compound 0.00949 µM) of 95.8%. For the same compound, the viability, T/C (second compound 0.03 µM, first compound 0.03 µM) was 95.4%, the viability, T/C (second compound 0.03 µM, first compound 0.0949 µM) was 96.7% and the viability, T/C (second compound 0.03 µM, first compound 0.3 µM) was 52.7%. For the same compound, the viability, T/C (second compound 0.03 µM, first compound 0.949 µM) was 2.27%, the viability, T/C (second compound 0.03 µM, first compound 3 µM) was 0.7% and the viability, T/C (second compound 0.0949 µM, first compound 0.00949 µM) was 95.7%. The viability, T/C (second compound 0.0949 µM, first compound 0.03 µM) was 95.7%, the viability, T/C (second compound 0.0949 µM, first compound 0.0949 µM) was 87.2% and the viability, T/C (second compound 0.0949 µM, first compound 0.3 µM) was 56%. The viability, T/C (second compound 0.0949 µM, first compound 0.949 µM) was 2.11%, the viability, T/C (second compound 0.0949 µM, first compound 3 µM) was 0.82% and the viability, T/C (second compound 0.3 µM, first compound 0.00949 µM) was 99.6%. For the same compound, the viability, T/C (second compound 0.3 µM, first compound 0.03 µM) was 99%, the viability, T/C (second compound 0.3 µM, first compound 0.0949 µM) was 98.3% and the viability, T/C (second compound 0.3 µM, first compound 0.3 µM) was 47.1%. The viability, T/C (second compound 0.3 µM, first compound 0.949 µM) was 2.58%, the viability, T/C (second compound 0.3 µM, first compound 3 µM) was 0.88% and the viability, T/C (second compound 0.949 µM, first compound 0.00949 µM) was 109%. For the same compound, the viability, T/C (second compound 0.949 µM, first compound 0.03 µM) was 108%, the viability, T/C (second compound 0.949 µM, first compound 0.0949 µM) was 107% and the viability, T/C (second compound 0.949 µM, first compound 0.3 µM) was 44.2%. For the same compound, the viability, T/C (second compound 0.949 µM, first compound 0.949 µM) was 2.18%, the viability, T/C (second compound 0.949 µM, first compound 3 µM) was 0.9% and the viability, T/C (second compound 3 µM, first compound 0.00949 µM) was 91.1%. It also gave a viability, T/C (second compound 3 µM, first compound 0.03 µM) of 89.2%, a viability, T/C (second compound 3 µM, first compound 0.0949 µM) of 81.8% and a viability, T/C (second compound 3 µM, first compound 0.3 µM) of 9.35%. It also gave a viability, T/C (second compound 3 µM, first compound 0.949 µM) of 1.26% and a viability, T/C (second compound 3 µM, first compound 3 µM) of 0.54%.
O=C(c1ccc(F)c(F)c1Nc1ccc(I)cc1F)N1CC(O)([C@@H]2CCCCN2)C1 + CCN1C(C(=O)NC23CCC(C(=O)O)(CC2)CC3)C(c2cccc(Cl)c2F)C2(C(=O)Nc3cc(Cl)ccc32)C12CCCCC2 was tested, and the IC50 (second compound 0.03 µM) was 56.2 nM, the IC50 (second compound 0.0949 µM) was 56.9 nM and the IC50 (second compound 0.3 µM) was 45.2 nM. For the same compound, the IC50 (second compound 0.949 µM) was 36 nM, the IC50 (second compound 3 µM) was 14.5 nM and the viability, T/C (second compound 0.03 µM, first compound 0.00316 µM) was 81.9%. It also gave a viability, T/C (second compound 0.03 µM, first compound 0.01 µM) of 65.3%, a viability, T/C (second compound 0.03 µM, first compound 0.0316 µM) of 53.4% and a viability, T/C (second compound 0.03 µM, first compound 0.1 µM) of 47.6%. It also gave a viability, T/C (second compound 0.03 µM, first compound 0.316 µM) of 30.3%, a viability, T/C (second compound 0.03 µM, first compound 1 µM) of 5.13% and a viability, T/C (second compound 0.0949 µM, first compound 0.00316 µM) of 84.8%. It also gave a viability, T/C (second compound 0.0949 µM, first compound 0.01 µM) of 64.5%, a viability, T/C (second compound 0.0949 µM, first compound 0.0316 µM) of 54.1% and a viability, T/C (second compound 0.0949 µM, first compound 0.1 µM) of 47.6%. It also gave a viability, T/C (second compound 0.0949 µM, first compound 0.316 µM) of 30.6%, a viability, T/C (second compound 0.0949 µM, first compound 1 µM) of 4.62% and a viability, T/C (second compound 0.3 µM, first compound 0.00316 µM) of 95.7%. For the same compound, the viability, T/C (second compound 0.3 µM, first compound 0.01 µM) was 63.6%, the viability, T/C (second compound 0.3 µM, first compound 0.0316 µM) was 53.2% and the viability, T/C (second compound 0.3 µM, first compound 0.1 µM) was 44.4%. For the same compound, the viability, T/C (second compound 0.3 µM, first compound 0.316 µM) was 27.3%, the viability, T/C (second compound 0.3 µM, first compound 1 µM) was 4.93% and the viability, T/C (second compound 0.949 µM, first compound 0.00316 µM) was 86%. For the same compound, the viability, T/C (second compound 0.949 µM, first compound 0.01 µM) was 58.5%, the viability, T/C (second compound 0.949 µM, first compound 0.0316 µM) was 52.3% and the viability, T/C (second compound 0.949 µM, first compound 0.1 µM) was 40.3%. It also gave a viability, T/C (second compound 0.949 µM, first compound 0.316 µM) of 22.6%, a viability, T/C (second compound 0.949 µM, first compound 1 µM) of 4.93% and a viability, T/C (second compound 3 µM, first compound 0.00316 µM) of 70.9%. It also gave a viability, T/C (second compound 3 µM, first compound 0.01 µM) of 48.6%, a viability, T/C (second compound 3 µM, first compound 0.0316 µM) of 43% and a viability, T/C (second compound 3 µM, first compound 0.1 µM) of 31.7%. It also gave a viability, T/C (second compound 3 µM, first compound 0.316 µM) of 11.5% and a viability, T/C (second compound 3 µM, first compound 1 µM) of 4.76%.
